The values that follow come from US20110166162A1, “1,2-Benzisothiazole Compounds Useful for Combating Animal Pests” (priority 2007, published 2011).

Holding throughout (type): in vivo
In data set [1] the test system is rice green leafhopper (nephotettix virescens). In words: Rice green leafhopper on sprayed rice seedlings. The conditions noted are these: 300 ppm, adults, after 72 hours. The procedure:
II.12 Rice Green Leafhopper (nephotettix virescens)
Rice seedlings were cleaned and washed 24 hours before spraying. The active compounds were formulated in 50:50 acetone:water (vol/vol), and 0.1% (vol/vol) surfactant (EL 620) was added. Potted rice seedlings were sprayed with 5 ml test solution, air dried, placed in cages and inoculated with 10 adults. Treated rice plants were kept at about 28-29° C. and relative humidity of about 50-60%. Percent mortality was recorded after 72 hours.

Data set [2] deals with green peach aphid (Myzus persicae). In words: Green peach aphid, pepper plant leaf dip test. The conditions noted are these: 300 ppm; pepper plants dipped; after 5 days. An excerpt: II.11 Green Peach Aphid (myzus persicae)
(§1) The active compounds were formulated in 50:50 acetone:water (vol/vol) and 100 ppm Kinetic™ surfactant.
Pepper plants in the 2nd leaf-pair stage (variety “California Wonder”) were infested with approximately 40 laboratory-reared aphids by placing infested leaf sections on top of the test plants. The leaf sections were removed after 24 hr. The leaves of the intact plants were dipped into gradient solutions of the test compound and allowed to dry. Test plants were maintained under fluorescent light (24 hour photoperiod) at about 25° C. and about 20-40% relative humidity. Aphid mortality on the treated plants, relative to mortality on check plants, was determined after 5 days.

Data set [3] has as its system silverleaf whitefly (bemisia argentifolii). In words: Silverleaf whitefly, cotton cotyledon dip test. The conditions noted are these: 300 ppm; cotyledons dipped; 3 days after treatment. As to the method: II.9 Silverleaf Whitefly (bemisia argentifolii)
as §1
Selected cotton plants were grown to the cotyledon state (one plant per pot). The cotyledons were dipped into the test solution to provide complete coverage of the foliage and placed in a well-vented area to dry. Each pot with treated seedling was placed in a plastic cup and 10 to 12 whitefly adults (approximately 3-5 day old) were introduced. The insects were collected using an aspirator and a Tygon® tubing connected to a barrier pipette tip. The tip containing the collected insects was then gently inserted into the soil containing the treated plant allowing insects to crawl out of the tip to reach the foliage for feeding. The cups were covered with a re-usable screened lid. Test plants were maintained in the holding room at about 25° C. and about 20-40% relative humidity for 3 days avoiding direct exposure to the fluorescent light (24 hour photoperiod) to prevent trapping of heat inside the cup. Mortality was assessed 3 days after treatment of the plants.

Data set [4] deals with adult female rats. In words: Acute oral rat toxicity study, single oral gavage, 14 days observation. The conditions noted are these: three rats per study, single oral gavage dose 100 mg/kg bw. The procedure: Some representatives of the compounds according to the present invention have been tested in acute oral rat toxicity studies.
In these studies, test substances were administered to adult female rats by oral gavage for one time. The compounds were administered as a 1% b.w. suspension or the compound in a 1% aqueous carboxymethyl cellulose solution. In each study three rats were used. The animals were treated with a single dose of 100 mg/kg bw. […] After the 14 day observation period, the animals were sacrificed, dissected, and examined for gross pathological lesions.

SMILES strings stand for the structures.

Take `COc1cc(CN2C(=O)c3cc(-c4ccc(F)cc4F)ccc3S2(=O)=O)ccn1` [I.19]: the “mortality in comparison with untreated controls” value (shortened to “mortality in comparison”) in data set [1] is recorded as “over 75%”.
On to `O=C1c2cc(-c3ccc(F)cc3F)ccc2S(=O)(=O)N1Cc1ccncc1` [I.20], for which the “mortality in comparison” value in data set [2] is given as “over 75%”.
In the case of `O=C1c2cc(-c3ccc(F)cc3F)ccc2S(=O)(=O)N1Cc1ccnc2cc(C(F)(F)F)ccc12` [I.28], the “mortality in comparison” value in data set [3] is listed as “over 75%”.
Turning to `Cc1nccc(CN2C(=O)c3cc(-c4ccc(C(F)(F)F)cc4Cl)ccc3S2(=O)=O)c1C` [I.34], in data set [4], the “Lethality (cumulative) 0-5 h after treatment” value is on record as 0, the “Lethality (cumulative) 1 d after treatment” value is on record as 0, the “Lethality (cumulative) 2 d after treatment” value was 0 and the “Lethality (cumulative) 7 d after treatment” value came out at 0. For the same compound, in data set [4], the “Lethality (cumulative) 14 d after treatment” value came to 1.
With `Cc1nccc(CN2C(=O)c3cc(-c4ccc(Cl)cc4C(F)(F)F)ccc3S2(=O)=O)c1C` [I.35], in data set [4], the “Lethality (cumulative) 0-5 h after treatment” value amounted to 0, the “Lethality (cumulative) 1 d after treatment” value worked out at 0, the “Lethality (cumulative) 2 d after treatment” value amounted to 0 and the “Lethality (cumulative) 7 d after treatment” value is recorded as 0. For the same compound, the “Lethality (cumulative) 14 d after treatment” value in data set [4] was found to be 2.
